Results published in PubChem BioAssay AID1963844 (Molecular Pharmacology Branch, DTP, NCI, 2024).

Test system: 422866-222-R5-J1-PDC complex spheroid viability
Test: Anticancer human tumor 422866-222-R5-J1-PDC patient-derived pancreatic adenocarcinoma cell line growth inhibition [POLQ]
Details: for IC50: curve of first compound; for viability, T/C: stronger effect = lower value
Description: Multicellular complex tumor spheroid response to Polymerase (POL) inhibitors (novobiocin, ART-558, RP6685) in combination with a variety of drugs and investigational agents in selected tumor cell lines
The POL inhibitors (novobiocin, ART-558, and RP6685) were evaluated both individually and in combination with standard of care and investigational anticancer small molecules within a complex spheroid model of solid tumors. . Complex spheroids include a stromal component modeled by human endothelial cells (HUVEC) and fibroblasts modeled by human mesenchymal stem cells (MSCs). The concentration ranges selected for each drug and investigational agent were based upon clinically achievable concentrations if the clinical Cmax of the agent was known.
Compounds. The drugs and investigational agents: novobiocin (NSC847541), ART-558 (NSC835418), RP-6685 (NSC848927), peposertib (NSC802822), ceralasertib (NSC780249), elimusertib (NSC800525), camonsertib (NSC841442), AZD-1390 (NSC803789), olaparib (NSC753686), talazoparib (NSC767125), rucaparib (NSC756644), sotorasib (NSC818433), MRTX-1133 (NSC836407), SN-38 (NSC673596), topotecan (NSC609699), epotoside (NSC141540), doxorubicin (NSC123127), gemcitabine (NSC613327), 5-fluorouracil (NSC19893), paclitaxel (NSC125973), vemurafenib (NSC761431), MSA-2 (NSC828583), SN-011 (NSC837082), adavosertib (NSC754352), prexasertib (NSC758257), carboplatin (NSC241240) and oxaliplatin (NSC266046), were obtained from the National Cancer Institute (NCI) Developmental Therapeutics Program Chemical Repository (21). The FDA-approved anticancer drug set is available from the Developmental Therapeutics Program at https://dtp.cancer.gov/organization/dscb/obtaining/. […] The stock solutions were prepared in dimethyl sulfoxide (DMSO, Sigma-Aldrich, St. Louis, MO, cat. D2650), except for the platinum compounds which were prepared in saline (Quality Biological, Gaithersburg, MD, cat. 114-055-101), at 800-fold the tested concentration and stored at -70 degrees C prior to their use. All drugs and investigational agents were tested over a range starting from a high concentration at or near the clinical Cmax and decreasing in half-log increments. If the clinical Cmax for an agent had not been determined, the highest concentration tested was 10 microM, except for SN-38, which was tested at a high concentration of 1 microM.
Cell Culture. All cells were maintained in an incubator at 37 degrees C and 5% CO2 with 95% humidity. The PDC lines were cultured according to standard operating procedures established by the NCI PDMR (https://pdmr.cancer.gov). Table 3 of the manuscript, lists the cell lines along with the number of the three cell types plated to form the mct-spheroids and media for tumor cell growth. After thawing, all PDC lines, except 997537-175-T-J1-PDC and 415267-285-R-J2-PDC, were cultured in Matrigel-coated flasks prepared with a working solution of 1X Ham's F-12 nutrient mix, without supplementation (Thermo Fisher Scientific, cat. 11765054), 100 U/mL penicillin-streptomycin (Thermo Fisher Scientific, cat. 15140122), and 2.5% Matrigel (Corning Inc., Corning, NY, cat. 354248) for the first three passages. The two PDC lines 997537-175-T-J1-PDC and 415267-285-R-J2-PDC were cultured on uncoated flasks. The 857933-349-R-J2-PDC line was cultured in 6C/Colon 1B media containing advanced DMEM/F-12 (Thermo Fisher Scientific, cat. 12634028), 10 mM HEPES (Thermo Fisher Scientific, cat. 15630080), 1X GlutaMAX supplement (Thermo Fisher Scientific, cat. 35050061), 0.1 mg/mL primocin (InvivoGen, San Diego, CA, cat. ant-pm-2), 10% defined fetal bovine serum, heat inactivated (HyClone Laboratories Inc., Logan, UT, cat. SH30070.03HI), 50% L-WRN conditioned media (ATCC, cat. CRL-3276), 1.25 mM N-Acetyl-L-cysteine (Sigma-Aldrich, cat. A9165), 10 mM nicotinamide (Sigma-Aldrich, cat. N0636), 1X B-27 supplement (Thermo Fisher Scientific, cat. 17504044), 1X N-2 supplement (Thermo Fisher Scientific, cat. […]
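Also: spheroids exposed to compounds for one week before readout.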
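For viability, T/C in this document: percent of DMSO vehicle wells luminescence so 100% = untreated viability.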

Compound: Cn1ncnc1[C@H]1c2n[nH]c(=O)c3cc(F)cc(c23)N[C@@H]1c1ccc(F)cc1 + Nc1ccc(C#CCN(C(=O)Cc2ncc(C(F)(F)F)cc2C(F)(F)F)c2ccc(F)cc2)nn1
- IC50 (second compound 0.0316 µM): > 100 nM
- IC50 (second compound 0.1 µM): > 100 nM
- IC50 (second compound 0.316 µM): > 100 nM
- IC50 (second compound 1 µM): > 100 nM
- IC50 (second compound 3.16 µM): > 100 nM
- IC50 (second compound 10 µM): > 100 nM
- viability, T/C (second compound 0.0316 µM, first compound 0.000316 µM): 91.5%
- viability, T/C (second compound 0.0316 µM, first compound 0.001 µM): 115%
- viability, T/C (second compound 0.0316 µM, first compound 0.00316 µM): 80.7%
- viability, T/C (second compound 0.0316 µM, first compound 0.01 µM): 104%
- viability, T/C (second compound 0.0316 µM, first compound 0.0316 µM): 88.3%
- viability, T/C (second compound 0.0316 µM, first compound 0.1 µM): 75.7%
- viability, T/C (second compound 0.1 µM, first compound 0.000316 µM): 101%
- viability, T/C (second compound 0.1 µM, first compound 0.001 µM): 106%
- viability, T/C (second compound 0.1 µM, first compound 0.00316 µM): 110%
- viability, T/C (second compound 0.1 µM, first compound 0.01 µM): 85.2%
- viability, T/C (second compound 0.1 µM, first compound 0.0316 µM): 81.7%
- viability, T/C (second compound 0.1 µM, first compound 0.1 µM): 74.1%
- viability, T/C (second compound 0.316 µM, first compound 0.000316 µM): 112%
- viability, T/C (second compound 0.316 µM, first compound 0.001 µM): 108%
- viability, T/C (second compound 0.316 µM, first compound 0.00316 µM): 86.1%
- viability, T/C (second compound 0.316 µM, first compound 0.01 µM): 91.6%
- viability, T/C (second compound 0.316 µM, first compound 0.0316 µM): 92.7%
- viability, T/C (second compound 0.316 µM, first compound 0.1 µM): 75.2%
- viability, T/C (second compound 1 µM, first compound 0.000316 µM): 109%
- viability, T/C (second compound 1 µM, first compound 0.001 µM): 93.6%
- viability, T/C (second compound 1 µM, first compound 0.00316 µM): 98.8%
- viability, T/C (second compound 1 µM, first compound 0.01 µM): 98.8%
- viability, T/C (second compound 1 µM, first compound 0.0316 µM): 77%
- viability, T/C (second compound 1 µM, first compound 0.1 µM): 87.9%
- viability, T/C (second compound 3.16 µM, first compound 0.000316 µM): 115%
- viability, T/C (second compound 3.16 µM, first compound 0.001 µM): 111%
- viability, T/C (second compound 3.16 µM, first compound 0.00316 µM): 98.1%
- viability, T/C (second compound 3.16 µM, first compound 0.01 µM): 94.9%
- viability, T/C (second compound 3.16 µM, first compound 0.0316 µM): 89.1%
- viability, T/C (second compound 3.16 µM, first compound 0.1 µM): 92.4%
- viability, T/C (second compound 10 µM, first compound 0.000316 µM): 101%
- viability, T/C (second compound 10 µM, first compound 0.001 µM): 111%
- viability, T/C (second compound 10 µM, first compound 0.00316 µM): 108%
- viability, T/C (second compound 10 µM, first compound 0.01 µM): 95.7%
- viability, T/C (second compound 10 µM, first compound 0.0316 µM): 86.1%
- viability, T/C (second compound 10 µM, first compound 0.1 µM): 77.9%
